Results published in patent US4228239A (priority 1977, dated 1980).
In brackets after ≈: the same amount, converted by molar mass.

Tests used:
[1] = Preliminary acute toxicity test with mice; settings: mouse, in vivo, ip, intraperitoneal injection
Fusicladium levieri = test: Activity against microorganisms; type: cell-based
Trichophyton rubrum = test: Activity against microorganisms; type: cell-based
Sclerotinia screrotiorum = test: Activity against microorganisms; type: cell-based
Rhodotorula rubra = test: Activity against microorganisms; type: cell-based
Solubility = type: physicochemical
Cryptococcus neoformans = test: Activity against microorganisms; type: cell-based
Talaromyces avellaneus = test: Growth inhibition of a fungus on an agar plate; type: cell-based; settings: Hamigera avellanea, pH 7.0, read-out: minimal inhibitory concentration
Procedure: On the other hand, the growth of a fungus, Talaromyces avellaneus is inhibited by P-3 on an agar plate consisting of 3.5 g disodium hydrogen phosphate, 0.5 g monopotassium dihydrogen phosphate, 5 g yeast extract (Difco), 10 g glucose, 15 g agar, 1000 ml distilled water, pH 7.0. The minimal inhibitory concentration was 3 μg/ml for P-3.

Cochlioborus miyabeanus = test: Activity against microorganisms; type: cell-based
[2] = system: Helminthosporium sigmoidium var irregulare; test: Activity against microorganisms; type: cell-based
Bacillus subtilis = test: Antimicrobial activity, paper disc method; type: cell-based; settings: paper disc 8 mm, 0.02 ml of a 300 μg/ml solution, trypticase-soy agar
Procedure: (§1) With trypticase-soy agar (BBL) as an assay medium, the inhibitory concentrations against the microorganisms described below were investigated by the paper disc method. Filter-paper discs (Toyo Seisakusho, thin-type, 8 mm in dia.) each impregnated with 0.02 ml of a 300 μg/ml solution of P-3 were placed on agar plates respectively inoculated with the microorganisms described below. P-3 had no activity against the following bacteria: Escherichia coli, Proteus vulgaris, Proteus mirabilis, Pseudomonas aeruginosa, Staphylococcus aureus, Bacillus subtilis, Bacillus cereus, Klebsiella pneumoniae, Serratia marcescens, and Mycobacterium avium.

Escherichia coli = test: Antimicrobial activity, paper disc method; type: cell-based; settings: paper disc 8 mm, 0.02 ml of a 300 μg/ml solution, trypticase-soy agar
Procedure: as §1

Serratia marcescens = test: Antimicrobial activity, paper disc method; type: cell-based; settings: paper disc 8 mm, 0.02 ml of a 300 μg/ml solution, trypticase-soy agar
Procedure: as §1

Bacillus cereus = test: Antimicrobial activity, paper disc method; type: cell-based; settings: paper disc 8 mm, 0.02 ml of a 300 μg/ml solution, trypticase-soy agar
Procedure: as §1

Mycobacterium avium = test: Antimicrobial activity, paper disc method; type: cell-based; settings: paper disc 8 mm, 0.02 ml of a 300 μg/ml solution, trypticase-soy agar
Procedure: as §1

Proteus mirabilis = test: Antimicrobial activity, paper disc method; type: cell-based; settings: paper disc 8 mm, 0.02 ml of a 300 μg/ml solution, trypticase-soy agar
Procedure: as §1

Klebsiella pneumoniae = test: Antimicrobial activity, paper disc method; type: cell-based; settings: paper disc 8 mm, 0.02 ml of a 300 μg/ml solution, trypticase-soy agar
Procedure: as §1

Staphylococcus aureus = test: Antimicrobial activity, paper disc method; type: cell-based; settings: paper disc 8 mm, 0.02 ml of a 300 μg/ml solution, trypticase-soy agar
Procedure: as §1

Proteus vulgaris = test: Antimicrobial activity, paper disc method; type: cell-based; settings: paper disc 8 mm, 0.02 ml of a 300 μg/ml solution, trypticase-soy agar
Procedure: as §1

Pseudomonas aeruginosa = test: Antimicrobial activity, paper disc method; type: cell-based; settings: paper disc 8 mm, 0.02 ml of a 300 μg/ml solution, trypticase-soy agar
Procedure: as §1

P388 leukemia = test: Antitumour activity upon P388 leukemia in mice; type: in vivo, mouse; settings: 0.00625 mg/kg/day, intraperitoneal, 9 consecutive days; 1×10^6 cells/animal i.p. transplanted
Text: The therapeutic effects of P-3 (dosed intraperito-nearly for 9 consecutive days) upon P388 leukemia in mice (1×10^6 cells/animal, mouse, intra-peritoneally transplanted) was investigated.

Pyricularia oryzae = type: cell-based
Pellicularia sasakii = test: Activity against microorganisms; type: cell-based

With COc1cc2cc(c1Cl)N(C)C(=O)CC(OC(=O)C(C)C)C1(C)OC1C(C)C1CC(O)(NC(=O)O1)C(OC)C=CC=C(C)C2 (centres unmarked) [P-3] the LD50 [1] was greater than 0.313 mg/kg, the “activity against Fusicladium levieri” value (Fusicladium levieri) was “had the activity” and the “activity against Trichophyton rubrum” value (Trichophyton rubrum) was “had the activity”. For the same molecule, the “activity against Sclerotinia screrotiorum” value (Sclerotinia screrotiorum) was “had the activity”, the “activity against Rhodotorula rubra” value (Rhodotorula rubra) was “had the activity” and the Solubility (Solubility; acetone) was “Soluble”. For the same molecule, the Solubility (Solubility; benzene) was “Sparingly soluble”, the Solubility (Solubility; chloroform) was “Soluble” and the Solubility (Solubility; dimethylsulfoxide) was “Soluble”. The Solubility (Solubility; ethanol) was “Soluble”, the Solubility (Solubility; ether) was “Sparingly soluble” and the Solubility (Solubility; ethyl acetate) was “Soluble”. The Solubility (Solubility; hexane) was “Insoluble”, the Solubility (Solubility; methanol) was “Soluble” and the Solubility (Solubility; petr.ether) was “Insoluble”. The Solubility (Solubility; pyridine) was “Soluble”, the Solubility (Solubility; tetrahydrofuran) was “Soluble” and the Solubility (Solubility; water) was “Insoluble”. For the same molecule, the “activity against Cryptococcus neoformans” value (Cryptococcus neoformans) was “had the activity”, the MIC (Talaromyces avellaneus) was 3 µg/mL (≈ 4.72 µM) and the “activity against Cochlioborus miyabeanus” value (Cochlioborus miyabeanus) was “had the activity”. For the same molecule, the “activity against Helminthosporium sigmoidium var irregulare” value [2] was “had the activity”, the “activity against bacteria (Bacillus subtilis)” value (Bacillus subtilis) was “no activity” and the “activity against bacteria (Escherichia coli)” value (Escherichia coli) was “no activity”. The “activity against bacteria (Serratia marcescens)” value (Serratia marcescens) was “no activity”, the “activity against bacteria (Bacillus cereus)” value (Bacillus cereus) was “no activity” and the “activity against bacteria (Mycobacterium avium)” value (Mycobacterium avium) was “no activity”. For the same molecule, the “activity against bacteria (Proteus mirabilis)” value (Proteus mirabilis) was “no activity”, the “activity against bacteria (Klebsiella pneumoniae)” value (Klebsiella pneumoniae) was “no activity” and the “activity against bacteria (Staphylococcus aureus)” value (Staphylococcus aureus) was “no activity”. For the same molecule, the “activity against bacteria (Proteus vulgaris)” value (Proteus vulgaris) was “no activity”, the “activity against bacteria (Pseudomonas aeruginosa)” value (Pseudomonas aeruginosa) was “no activity” and the life-span-extending ratio (P388 leukemia) was 168%. For the same molecule, the “activity against Pyricularia oryzae” value (Pyricularia oryzae) was “had the activity” and the “activity against Pellicularia sasakii” value (Pellicularia sasakii) was “had the activity”.
